Results as given in patent US20160318866A1, “SUBSTITUTED BIPIPERIDINYL DERIVATIVES” (Bayer Pharma Aktiengesellschaft, priority 2013, published 2016).

How the values were obtained:
human α2C receptor = target: T1, human α2C receptor (Homo sapiens, UniProt P18825); test: Antagonism against the adrenoreceptor α2C (luminescence, recombinant CHO cell line); type: cell-based; conditions: antagonism against adrenoreceptor α2C; noradrenaline 20 nM; tested up to 10 μM; read-out: IC50
T1 construct: expressed in transfected cells; host or cells: CHO cells, also recombinantly expressing chimeric G protein Gαqi3 and mitochondrial obelin (mtOb)
T1 sequence (P18825 1-462): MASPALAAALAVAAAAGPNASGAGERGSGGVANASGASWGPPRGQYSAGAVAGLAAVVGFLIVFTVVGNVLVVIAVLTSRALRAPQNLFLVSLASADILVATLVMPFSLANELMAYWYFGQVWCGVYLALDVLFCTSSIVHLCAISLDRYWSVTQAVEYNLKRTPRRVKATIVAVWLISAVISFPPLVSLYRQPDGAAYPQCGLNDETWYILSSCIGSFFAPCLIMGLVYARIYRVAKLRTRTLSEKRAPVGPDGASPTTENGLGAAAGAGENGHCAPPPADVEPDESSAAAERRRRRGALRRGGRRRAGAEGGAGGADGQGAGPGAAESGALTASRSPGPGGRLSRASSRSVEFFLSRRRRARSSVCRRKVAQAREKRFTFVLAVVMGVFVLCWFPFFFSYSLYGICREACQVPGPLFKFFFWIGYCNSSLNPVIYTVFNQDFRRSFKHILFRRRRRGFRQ
Method in brief: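 CHO cells expressing human α2C receptor with chimeric Gαqi3 and mitochondrial obelin, loaded with 2.5 μg/ml coelenterazine for one day at 30 °C.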

Wistar rat = test: Measurement of blood flow and blood pressure in rats (Wistar rats); type: in vivo; conditions: steady state, 32 min after start, vs initial flow, mean
Description: Wistar rats (Hsd Cpb:Wu) of a weight of 250-350 g or ZDF rats (ZDF/Crl-Lepr fa/fa) of a weight of 330-520 g were anaesthetized using 2.5% isoflurane in an oxygen/laughing gas mixture (40:60). To determine the blood flow in the carotid artery and the femoral artery, the anaesthetized rat was brought into a supine position, and the left carotid artery and the right femoral artery are then carefully exposed. Blood flow was measured by placing flow probes (Transonic Flowprobe) at the vessels. By introducing a PE50 artery catheter into the left femoral artery, blood pressure and heart rate were determined (Transducer Ref. 5203660: from Braun CH). The substances were administered as a bolus injection or a continuous infusion via a venous catheter in the left femoral vein.
Following the preparation of the animals, there was a 5 min baseline interval. Infusion of the AR alphα2C receptor antagonist was then started. In the steady state (32 min after the start of the experiment), the femoral flow was determined in relation (% difference) to the initial flow.

[1] = system: diabetic (ZDFfa/fa) and healthy rats (Wistar); test: Assay of perfusion-enhancing substances (microcirculation), laser doppler at the paw; type: in vivo, rat; conditions: single oral dose
Text: In diabetic (ZDFfa/fa) and healthy rats (Wistar), a laser doppler probe was fastened under anaesthesia conditions (isoflurane anaesthesia) at the sole of the paw for measuring cutaneous microcirculation. The test animals were once treated orally with the test substances. During the experiment, microperfusion and temperature of the lower extremities were documented continuously. Here, a temperature-sensitive laser doppler probe (Periflux, O2C) was fastened with adhesive to the paws of the animals, allowing the measurement of microperfusion and skin temperature. The microcirculation measurement values were measured on both paws 30 min after oral administration of the test substance. […] Also stated is the MED for the significant increase of skin temperature (ttest).

Structure (SMILES): CC1CCCN(C2CCN(C(=O)c3ccc(C(C)(C)O)cc3)CC2)C1 (single isomer, unassigned) [Example 8, [4-(1-Hydroxy-1-methylethyl)phenyl)](3-methyl-1,4′-bipiperidin-1′-yl)methanone, (−)-enantiomer]
- IC50 (human α2C receptor): 163 nM
- Change in the femoral flow in % (Wistar rat; 10 μg/kg/min): 14.2 (n = 3) %
- Change in the femoral flow in % (Wistar rat; 30 μg/kg/min infusion): 3.1 (n = 5) %
- Change in the femoral flow in % (Wistar rat; 300 μg/kg/min infusion): 15.3 (n = 5) %
- factor by which microcirculation is improved at this dose compared to placebo ([1]; at the MED, 30 min after administration): 2.3 x
- MED [mg/kg] skin temperature ([1]; minimum effective dose for significant increase of skin temperature (ttest)): 1 mg/kg
- MED [mg/kg] microcirculation ([1]; minimum effective dose for significantly improved microcirculation vs placebo, 30 min after administration): 1 mg/kg
